{"source": "BindingDB's records for PubMed 33569941", "about": "(n/a, 2021)", "target": "Tumor necrosis factor (Homo sapiens, UniProt P01375)", "sequence (P01375 whole entry)": "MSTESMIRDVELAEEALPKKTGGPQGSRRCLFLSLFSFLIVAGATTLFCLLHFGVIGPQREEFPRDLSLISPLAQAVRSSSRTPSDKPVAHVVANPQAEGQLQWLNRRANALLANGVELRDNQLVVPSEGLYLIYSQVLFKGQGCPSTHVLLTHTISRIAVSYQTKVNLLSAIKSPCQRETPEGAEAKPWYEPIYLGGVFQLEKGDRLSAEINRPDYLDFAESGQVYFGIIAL", "experiment": "Inhibition of human TNF-alpha secretion stimulated by LPS"}
{"compound": "Cc1ccc(Cl)cc1Nc1cc(Cl)c2nonc2c1[N+](=O)[O-]", "values": [{"measurement": "EC50", "result": 0.3, "unit": "µM"}]}
